Measurements published in patent publication US20250320274A1, “RECOMBINANT HUMAN COLLAGEN AND METHOD FOR BUILDING SAME” (NANTONG UNIVERSITY, priority 2020, published 2025).
No end group written: not given here.

Experiment: water solubility test
Assay type: physicochemical
Details: 32 mg in 8 ml of water, directly without stirring

**Q.** With GPAGARGNDGATGAAGPPGPTGPAGPPGFP as the sequence, how does the water solubility read?
**A.** clear solution with no color, no precipitation, and no floating matter
